Results taken from publication PMC9122944, “Structural insights into the activation of somatostatin receptor 2 by cyclic SST analogues” (Cell Discovery, 2022).
Like-named read-outs stand apart in the source and are kept apart here.

What was measured:
SSTR2 F294S = molecular target: T1, SSTR2 F294S (Homo sapiens, UniProt P30874, F294S); experiment: Intracellular Ca2+ mobilization signaling assay, SSTR2 F294S mutant; type: cell-based; conditions: read-out: Ca2+ Emax
T1 construct: Flag; expressed in transfected cells; host or cells: 293 T cells (pcDNA3.1, co-transfected with Gqi9)
T1 sequence (P30874 whole entry F294S): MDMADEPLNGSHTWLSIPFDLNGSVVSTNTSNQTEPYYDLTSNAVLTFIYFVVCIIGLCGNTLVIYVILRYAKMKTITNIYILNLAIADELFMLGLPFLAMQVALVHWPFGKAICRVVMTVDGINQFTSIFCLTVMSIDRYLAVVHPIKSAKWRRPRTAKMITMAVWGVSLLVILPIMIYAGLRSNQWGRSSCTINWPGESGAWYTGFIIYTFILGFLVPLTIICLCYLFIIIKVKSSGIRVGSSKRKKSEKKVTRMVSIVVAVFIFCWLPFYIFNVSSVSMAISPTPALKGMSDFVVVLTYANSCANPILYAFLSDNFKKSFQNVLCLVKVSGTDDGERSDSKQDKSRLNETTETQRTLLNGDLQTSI
Protocol: (§1) SSTR2 (wild-type or mutant) and Gqi9 cloned in pcDNA3.1 vector were co-transfected into 293 T cells at a ratio of 2:1 with Lipo3000. After 24 h, the cells were plated in poly-D-lysine-coated 96-well plates. After cells were washed with calcium buffer (HBSS buffer supplemented with 0.1% BSA, 2.5 mM probenecid, pH 7.4), Fluo4 AM was added and incubated for 50 min in a 37 °C incubator. After washing with calcium buffer, 50 μL calcium buffer was added to each well. Fluorescence intensities were recorded simultaneously from all the wells by a FLIPR. Plates were illuminated at 488 nm and fluorescence emission was recorded at 540 nm. The fluorescence intensity was measured at 1-s intervals for 410 s. This procedure was followed by the addition of 50 μL agonist. Data were normalized to the baseline response of the ligand. Data were analyzed using nonlinear regression in GraphPad Prism software 9.0.

SSTR2 F208A = molecular target: T2, SSTR2 F208A (Homo sapiens, UniProt P30874, F208A); experiment: Intracellular Ca2+ mobilization signaling assay, SSTR2 F208A mutant; type: cell-based; conditions: read-out: Ca2+ Emax
T2 construct: Flag; expressed in transfected cells; host or cells: 293 T cells (pcDNA3.1, co-transfected with Gqi9)
T2 sequence (P30874 whole entry F208A): as the sequence (P30874 whole entry F294S) above, with F208A, S294F counted along it
Protocol: as §1

SSTR2 Y302A = molecular target: T3, SSTR2 Y302A (Homo sapiens, UniProt P30874, Y302A); experiment: Intracellular Ca2+ mobilization signaling assay, SSTR2 Y302A mutant; type: cell-based; conditions: read-out: Ca2+ Emax
T3 construct: Flag; expressed in transfected cells; host or cells: 293 T cells (pcDNA3.1, co-transfected with Gqi9)
T3 sequence (P30874 whole entry Y302A): as the sequence (P30874 whole entry F294S) above, with S294F, Y302A counted along it
Protocol: as §1

SSTR2 F272A = molecular target: T4, SSTR2 F272A (Homo sapiens, UniProt P30874, F272A); experiment: Intracellular Ca2+ mobilization signaling assay, SSTR2 F272A mutant; type: cell-based; conditions: percentage of wild-type SSTR2 response
T4 construct: Flag; expressed in transfected cells; host or cells: 293 T cells (pcDNA3.1, co-transfected with Gqi9)
T4 sequence (P30874 whole entry F272A): as the sequence (P30874 whole entry F294S) above, with F272A, S294F counted along it
Protocol: as §1

[1] = cited from earlier work
SSTR2 Q102A = molecular target: T5, SSTR2 Q102A (Homo sapiens, UniProt P30874, Q102A); experiment: Intracellular Ca2+ mobilization signaling assay, SSTR2 Q102A mutant; type: cell-based; conditions: for Emax: read-out: Ca2+ Emax
T5 construct: Flag; expressed in transfected cells; host or cells: 293 T cells (pcDNA3.1, co-transfected with Gqi9)
T5 sequence (P30874 whole entry Q102A): as the sequence (P30874 whole entry F294S) above, with Q102A, S294F counted along it
Protocol: as §1

SSTR2-Q126A = molecular target: T6, SSTR2-Q126A (Homo sapiens, UniProt P30874, Q126A); experiment: Intracellular Ca2+ mobilization signaling assay, SSTR2 Q126A mutant; type: cell-based; conditions: read-out: Ca2+ Emax
T6 construct: Flag; expressed in transfected cells; host or cells: 293 T cells (pcDNA3.1, co-transfected with Gqi9)
T6 sequence (P30874 whole entry Q126A): as the sequence (P30874 whole entry F294S) above, with Q126A, S294F counted along it
Protocol: as §1

SSTR2 (wild-type) = molecular target: T7, SSTR2 (wild-type) (Homo sapiens, UniProt P30874); experiment: Intracellular Ca2+ mobilization signaling assay, wild-type SSTR2; type: cell-based
T7 construct: Flag; expressed in transfected cells; host or cells: 293 T cells (pcDNA3.1, co-transfected with Gqi9)
T7 sequence (P30874 whole entry): as the sequence (P30874 whole entry F294S) above, with S294F counted along it
Protocol: as §1

SSTR2-Q102S = molecular target: T8, SSTR2-Q102S (Homo sapiens, UniProt P30874, Q102S); experiment: Intracellular Ca2+ mobilization signaling assay, SSTR2 Q102S mutant; type: cell-based; conditions: for Emax: read-out: Ca2+ Emax
T8 construct: Flag; expressed in transfected cells; host or cells: 293 T cells (pcDNA3.1, co-transfected with Gqi9)
T8 sequence (P30874 whole entry Q102S): as the sequence (P30874 whole entry F294S) above, with Q102S, S294F counted along it
Protocol: as §1

SSTR2 N276A = molecular target: T9, SSTR2 N276A (Homo sapiens, UniProt P30874, N276A); experiment: Intracellular Ca2+ mobilization signaling assay, SSTR2 N276A mutant; type: cell-based; conditions: read-out: Ca2+ Emax
T9 construct: Flag; expressed in transfected cells; host or cells: 293 T cells (pcDNA3.1, co-transfected with Gqi9)
T9 sequence (P30874 whole entry N276A): as the sequence (P30874 whole entry F294S) above, with N276A, S294F counted along it
Protocol: as §1

SSTR2 D122A = molecular target: T10, SSTR2 D122A (Homo sapiens, UniProt P30874, D122A); experiment: Intracellular Ca2+ mobilization signaling assay, SSTR2 D122A mutant; type: cell-based; conditions: read-out: Ca2+ Emax
T10 construct: Flag; expressed in transfected cells; host or cells: 293 T cells (pcDNA3.1, co-transfected with Gqi9)
T10 sequence (P30874 whole entry D122A): as the sequence (P30874 whole entry F294S) above, with D122A, S294F counted along it
Protocol: as §1

SSTR2(1-359)-Largebit = molecular target: T11, SSTR2(1-359)-Largebit (Homo sapiens, UniProt P30874); experiment: Intracellular Ca2+ mobilization signaling assay, SSTR2(1-359)-Largebit construct; type: cell-based; conditions: maximal response as percentage of wild-type SSTR2 response
T11 construct: SSTR2(1-359)-; Flag; expressed in transfected cells; host or cells: 293 T cells (pcDNA3.1, co-transfected with Gqi9)
T11 sequence (P30874 1-359): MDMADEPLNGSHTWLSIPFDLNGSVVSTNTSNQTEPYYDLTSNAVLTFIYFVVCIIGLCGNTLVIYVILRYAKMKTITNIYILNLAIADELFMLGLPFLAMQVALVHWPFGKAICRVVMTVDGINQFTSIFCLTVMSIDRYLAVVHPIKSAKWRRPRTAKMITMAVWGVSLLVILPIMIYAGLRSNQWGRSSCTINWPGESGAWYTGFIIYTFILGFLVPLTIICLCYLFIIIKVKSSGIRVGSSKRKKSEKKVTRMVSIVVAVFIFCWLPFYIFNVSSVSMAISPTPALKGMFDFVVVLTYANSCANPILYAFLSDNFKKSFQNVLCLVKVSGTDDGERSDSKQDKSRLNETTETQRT
Protocol: as §1

SSTR3 = SSTR3 (all five SSTRs); cited from earlier work
SSTR4 = SSTR4 (all five SSTRs); cited from earlier work
SSTR1 = SSTR1 (all five SSTRs); cited from earlier work
SSTR5 = SSTR5 (all five SSTRs); cited from earlier work
SSTR2 = SSTR2 (all five SSTRs); cited from earlier work
[2] = molecular target: SSTR2-Q102^2.63 substituted with alanine (human) (UniProt P30874)
Chain of SSTR2-Q102^2.63 substituted with alanine (human) (P30874 whole entry Q102A): as the sequence (P30874 whole entry F294S) above, with Q102A, S294F counted along it

[3] = molecular target: wild-type SSTR2 (pcDNA3.1, functional assays) (human) (UniProt P30874)
Chain of wild-type SSTR2 (pcDNA3.1, functional assays) (human) (P30874 whole entry): as the sequence (P30874 whole entry F294S) above, with S294F counted along it

SSTR2-Q126A (human) = SSTR2-Q126A (human) (UniProt P30874)
Chain of SSTR2-Q126A (human) (P30874 whole entry Q126A): as the sequence (P30874 whole entry F294S) above, with Q126A, S294F counted along it

`CC(C)[C@@H]1NC(=O)[C@H](CCCCN)NC(=O)[C@@H](Cc2c[nH]c3ccccc23)NC(=O)[C@H](Cc2ccc(O)cc2)NC(=O)[C@@H](NC(=O)[C@H](N)Cc2ccc3ccccc3c2)CSSC[C@@H](C(=O)N[C@H](C(N)=O)[C@@H](C)O)NC1=O` [Lanreotide] showed an Emax (SSTR2 F294S) of 11.4 ± 0.8%, an Emax (SSTR2 F208A) of 27.9 ± 4% and an Emax (SSTR2 Y302A) of 14 ± 2.2%. The Emax (SSTR2 F272A) was 12.4 ± 1.1%, the half-life [1] was 1 h and the EC50 (SSTR2 Q102A) was 398 nM. For the same compound, the Emax (SSTR2 Q102A) was 56.1 ± 4.2%, the Emax (SSTR2-Q126A) was 25.2 ± 1.8% and the EC50 (SSTR2 (wild-type)) was 50.1 nM. The EC50 (SSTR2-Q102S) was 501 nM, the “Effect of mutation on EC50” value (SSTR2-Q102S; SSTR2-Q102S versus wild-type SSTR2) was “highly attenuated EC50” and the Emax (SSTR2-Q102S) was 54.8 ± 1.6%. For the same compound, the Emax (SSTR2 N276A) was 13.8 ± 1.6% and the Emax (SSTR2 D122A) was 11.7 ± 4.3%.

In the case of `C[C@@H](O)[C@@H]1NC(=O)[C@H](CCCCN)NC(=O)[C@@H](Cc2c[nH]c3ccccc23)NC(=O)[C@H](Cc2ccccc2)NC(=O)[C@@H](NC(=O)[C@H](N)Cc2ccccc2)CSSC[C@@H](C(=O)N[C@H](CO)[C@@H](C)O)NC1=O` [Octreotide], the Emax (SSTR2 F208A; F208A mutant, percentage of wild-type SSTR2 response) is listed as 98.7 ± 6.9%, the Emax (SSTR2 Y302A; Y302A mutant, percentage of wild-type SSTR2 response) is listed as 13.7 ± 3.2% and the half-life [1] is listed as 2 h. It also gave an Emax (SSTR2 Q102A; Q102A mutant, percentage of wild-type SSTR2 response) of 104 ± 12.1%, an Emax (SSTR2-Q126A; Q126A mutant, percentage of wild-type SSTR2 response) of 83.5 ± 5.9% and an Emax (SSTR2-Q102S; Q102S mutant, percentage of wild-type SSTR2 response) of 91.9 ± 6.5%. For the same compound, the Emax (SSTR2 N276A; N276A mutant, percentage of wild-type SSTR2 response) was 22.3 ± 5.4%, the Emax (SSTR2(1-359)-Largebit) was 82.6 ± 7.4% and the Emax (SSTR2 D122A; D122A mutant, percentage of wild-type SSTR2 response) was 5.6 ± 0.5%.

For `C[C@H](N)C(=O)NCC(=O)N[C@H]1CSSC[C@@H](C(=O)O)NC(=O)[C@H](CO)NC(=O)[C@H]([C@@H](C)O)NC(=O)[C@H](Cc2ccccc2)NC(=O)[C@H]([C@@H](C)O)NC(=O)[C@H](CCCCN)NC(=O)[C@H](Cc2c[nH]c3ccccc23)NC(=O)[C@H](Cc2ccccc2)NC(=O)[C@H](Cc2ccccc2)NC(=O)[C@H](CC(N)=O)NC(=O)[C@H](CCCCN)NC1=O` [SST14], the binding affinity (SSTR3) is given as “high binding affinity”, the binding affinity (SSTR4) is given as “high binding affinity” and the binding affinity (SSTR1) is given as “high binding affinity”. The binding affinity (SSTR5) was “high binding affinity” and the binding affinity (SSTR2) was “high binding affinity”.

In the case of octreotide (peptide), the EC50 of Ca^2+ mobilization (293 T cells with Gqi9) [2] is reported as 1300 nM, the EC50 of Ca^2+ mobilization (293 T cells with Gqi9) [3] is reported as 20 nM and the EC50 of Ca^2+ mobilization (293 T cells with Gqi9) (SSTR2-Q126A (human)) is reported as 100 nM.
